# In patent publication US20210180080A1, “USE OF ALS MUTANT PROTEIN AND THE GENE THEREOF IN PLANT BREEDING BASED ON GENE EDITING TECHNOLOGY” (priority 2018, published 2021):
# What was measured:
# Type in all cases: in vivo
# [1] = tested on: Mutant A51 rice (ALS amino acid 628 glycine to tryptophan); assay: herbicide resistance identification by spraying rice seedlings, mutant; conditions: investigated 14 days later
# Text: (§1) The homozygous mutant T1 individual plants identified in Examples 2 and 3 were propagated, and the seeds were harvested in the artificial climate room of Nanjing Jiangsu Academy of Agricultural Sciences, which were the T2 generation; the T2 generation was continued to be propagated to obtain T3 Generation seeds. After accelerating the germination of the harvested T3 seeds, they were sown at a density of 450 kg hm^−2. When the rice growed to two leaves and one heart, the field water was drained and imazethapyr (aqueous agent, purchased from Nanjing Aijin Agrochemical Co., Ltd.) was sprayed at 210, 700, and 1400 g(a.i.) hm^−2 concentrations, respectively, with the water as the control group. After spraying for 24 h, the water was rehydrated, and the resistance was investigated 14 days later.
# (§2) After accelerating germination of the T3 generation seeds in Example 4, they were sown at a density of 450 kg hm^−2. When the rice growed to two leaves and one heart, water in the field water was drained and Bailongtong (aqueous agent, purchased from Nanjing Aijin Agrochemical Co., Ltd.) was sprayed at 240, 2400, 4800 g(ai) hm^−2 concentration with water as the control group. After spraying for 24 h, the water was rehydrated, and the resistance was investigated 14 days later.
# [2] = tested on: wild-type rice Nanjing 9108; assay: herbicide resistance identification by spraying rice seedlings, wild type; conditions: investigated 14 days later
# Text: as §1, §2
# [3] = tested on: transgenic lines A1-A58 of rice Nanjing 9108; assay: herbicide screening of T1 generation transgenic lines; conditions: 210 g (a.i.) hm^−2, investigated after 14 days
# Method: The T0 generation plants were harvested as an individual plant, and the harvested seeds were germinated and sown at a density of 450 kg hm^−2. When the rice growed to two leaves and one heart, the water was drained from the field and imazethapyr (aqueous agent, purchased from Nanjing Aijin Agrochemical Co., Ltd.) was sprayed at 210 g (a.i.) hm^−2. Rehydrate after spraying for 24 h, and investigate resistance after 14 days. Plants with all withered or dead leaves were susceptibleness, while the healthy and viable plants were resistance. […] Therefore, the frequency of obtaining herbicide resistant strains in this study was 1.72%. According to reports, the mutation frequency of herbicide resistant rice lines obtained by chemical mutagenesis was 0.00003^˜0.006%.
# [4] = 210 g(a.i.) hm^−2 sprayed at two leaves and one heart
# [5] = 210 g(a.i.) hm^−2 sprayed at two leaves and one heart, listed as Imazethapyr
compound,measurement,setting,value
CCc1cnc(C2=NC(C)(C(C)C)C(=O)N2)c(C(=O)O)c1 (stereo not drawn) [imazethapyr],resistance (survival) of mutant plants after spraying,[1]; [4],could survive
same,resistance (survival) of mutant plants after spraying,[1]; [5],still grow and develop normally
same,resistance (survival) of mutant plants after spraying,[1]; 240 g(ai) hm^−2 sprayed at two leaves and one heart,survived
same,resistance (survival) of mutant plants after spraying,"[1]; 700 g(a.i.) hm^−2 sprayed at two leaves and one heart, T3 generation",could survive
same,resistance (survival) of mutant plants after spraying,"[1]; 1400 g(a.i.) hm^−2 sprayed at two leaves and one heart, T3 generation",could survive
same,resistance (survival) of mutant plants after spraying,"[1]; 2400 g(ai) hm^−2 sprayed at two leaves and one heart, T3 generation",survived
same,resistance (survival) of wild-type plants after spraying,[2]; [4],all died
same,resistance (survival) of wild-type plants after spraying,[2]; [5],appear to die in whole
same,resistance (survival) of wild-type plants after spraying,[2]; 700 g(a.i.) hm^−2 sprayed at two leaves and one heart,all died
same,resistance (survival) of wild-type plants after spraying,[2]; 1400 g(a.i.) hm^−2 sprayed at two leaves and one heart,all died
same,resistance of A51 line plants after spraying,"[3]; A51 line, T1 generation",survived and showed herbicide resistance
same,resistance of the other 57 lines after spraying,"[3]; the other 57 of lines A1-A58, T1 generation",died
